Structures can show the parent of a compound that is named as a salt.
Columns and labels:
NMDA receptor = details: effect blocked by a specific NMDA-site antagonist and a glycine-site antagonist; cited from earlier work

SMILES | melting point | post synaptic current driven by the NMDA receptor (NMDA receptor)
CN(CCC(Oc1ccc(C(=O)c2ccc(F)cc2F)cc1)c1ccc(F)cc1)CC(=O)O (stereo not shown) (as salt: salt) | 65 to 75 °C | –
CN(CCC(Oc1ccc(C(=O)c2ccccn2)cc1)c1ccc(F)cc1)CC(=O)O (stereo not shown) (as salt: salt) | 68 to 80 °C | –
Cc1ccc(C(=O)c2ccc(OC(CCN(C)CC(=O)O)c3ccc(F)cc3)cc2)nc1 (stereo not shown) | 55 to 65 °C | –
CN(CCC(Oc1ccc(C(=O)c2ccc3ccccc3c2)cc1)c1ccccc1)CC(=O)O (stereo not shown) (as salt: salt) | 77 to 89 °C | –
CN(CCC(Oc1ccc(-c2ccccc2)cc1)c1ccc(F)cc1)CC(=O)O (stereo not shown) [NFPS] | – | increased the post synaptic current driven by the NMDA receptor
COc1ccc(C(=O)c2ccc(OC(CCN(C)CC(=O)O)c3ccc(F)cc3)cc2)cc1 (stereo not shown) (as salt: salt) | 75 to 85 °C | –
CN(CCC(Oc1ccc(C(=O)c2ccccc2F)cc1)c1ccc(F)cc1)CC(=O)O (stereo not shown) (as salt: salt) | 65 to 75 °C | –
CN(CCC(Oc1ccc(S(=O)(=O)c2ccccc2)cc1)c1ccccc1)CC(=O)O (stereo not shown) (as salt: salt) | 95 to 100 °C | –
CN(CCC(Oc1ccc(C(=O)c2ccc3ccccc3c2)cc1)c1ccc(F)cc1)CC(=O)O (stereo not shown) (as salt: salt) | 87 to 97 °C | –
CN(CCC(Oc1ccc(C(=O)c2nc3ccccc3s2)cc1)c1ccc(F)cc1)CC(=O)O (stereo not shown) (as salt: salt) | 105 to 111 °C | –
CN(CCC(Oc1ccc(C(=O)c2ccc(C(F)(F)F)cc2)cc1)c1ccccc1)CC(=O)O (stereo not shown) (as salt: salt) | 65 to 83 °C | –
CN(CCC(Oc1ccc(C(=O)c2cccc3ccccc23)cc1)c1ccc(F)cc1)CC(=O)O (stereo not shown) (as salt: salt) | 91 to 100 °C | –
Cc1cccnc1C(=O)c1ccc(OC(CCN(C)CC(=O)O)c2ccc(F)cc2)cc1 (stereo not shown) (as salt: salt) | 65 to 73 °C | –
Cc1cnc(C(=O)c2ccc(OC(CCN(C)CC(=O)O)c3ccc(F)cc3)cc2)s1 (stereo not shown) (as salt: salt) | 95 to 110 °C | –
CN(CCC(Oc1ccc(C(=O)c2ccc(F)cc2)cc1)c1ccccc1)CC(=O)O (stereo not shown) (as salt: salt) | 65 to 83 °C | –
CN(CCC(Oc1ccc(C(=O)c2ccc(C(F)(F)F)cc2)cc1)c1ccc(F)cc1)CC(=O)O (stereo not shown) (as salt: salt) | 58 to 72 °C | –
CN(CCC(Oc1ccc(C(=O)c2cc(C(F)(F)F)cc(C(F)(F)F)c2)cc1)c1ccc(F)cc1)CC(=O)O (stereo not shown) | 60 to 75 °C | –
CN(CCC(Oc1ccc(C(=O)c2c(F)cccc2F)cc1)c1ccc(F)cc1)CC(=O)O (stereo not shown) (as salt: salt) | 77 to 87 °C | –
Cc1cccc(C(=O)c2ccc(OC(CCN(C)CC(=O)O)c3ccc(F)cc3)cc2)c1C (stereo not shown) (as salt: salt) | 83 to 93 °C | –
CN(CCC(Oc1ccc(C(=O)c2cc3ccccc3s2)cc1)c1ccc(F)cc1)CC(=O)O (stereo not shown) (as salt: salt) | 90 to 100 °C | –
CN(CCC(Oc1ccc(C(=O)c2nccs2)cc1)c1ccc(F)cc1)CC(=O)O (stereo not shown) (as salt: salt) | 98 to 108 °C | –

More lines, main results first:

melting point | SMILES | post synaptic current driven by the NMDA receptor (NMDA receptor)
63 to 70 °C | CN(CCC(Oc1ccc(C(=O)c2ccc(C(F)(F)F)cc2)cc1)c1ccc(Cl)cc1)CC(=O)O (stereo not shown) (as salt: salt) | –
60 to 70 °C | CN(CCC(Oc1cccc(C(=O)c2ccncc2)c1)c1ccc(F)cc1)CC(=O)O (stereo not shown) | –
75 to 85 °C | Cc1cccc(C(=O)c2ccc(OC(CCN(C)CC(=O)O)c3ccc(F)cc3)cc2)c1 (stereo not shown) (as salt: salt) | –
65 to 75 °C | CN(CCC(Oc1ccc(C(=O)c2ccsc2)cc1)c1ccc(F)cc1)CC(=O)O (stereo not shown) (as salt: salt) | –
63 to 68 °C | CN(CCC(Oc1ccc(C(=O)c2ccc(Cl)cc2)cc1)c1ccc(Cl)cc1)CC(=O)O (stereo not shown) (as salt: salt) | –
75 to 85 °C | CN(CCC(Oc1ccc(C(=O)c2ccccc2F)cc1)c1ccc(Cl)cc1)CC(=O)O (stereo not shown) (as salt: salt) | –
52 to 65 °C | CN(CCC(Oc1ccc(C(=O)c2ccncc2)cc1)c1ccc(F)cc1)CC(=O)O (stereo not shown) (as salt: salt) | –
85 to 93 °C | Cc1cccc(C(=O)c2ccc(OC(CCN(C)CC(=O)O)c3ccc(Cl)cc3)cc2)c1C (stereo not shown) (as salt: salt) | –
75 to 85 °C | CN(CCC(Oc1ccc(C(=O)c2ccc(F)cc2F)cc1)c1ccc(Cl)cc1)CC(=O)O (stereo not shown) (as salt: salt) | –
60 to 70 °C | Cc1ccc(C(=O)c2ccc(OC(CCN(C)CC(=O)O)c3ccc(F)cc3)cc2)cc1 (stereo not shown) (as salt: salt) | –
72 to 82 °C | CN(CCC(Oc1ccc(C(=O)c2ccncc2)cc1)c1ccc(Cl)cc1)CC(=O)O (stereo not shown) | –
71 to 85 °C | CN(CCC(Oc1ccc(C(=O)c2ccc(Cl)cc2)cc1)c1ccc(F)cc1)CC(=O)O (stereo not shown) (as salt: salt) | –
91 to 110 °C | CN(CCC(Oc1ccc(C(=O)c2ccsc2)cc1)c1ccc(Cl)cc1)CC(=O)O (stereo not shown) (as salt: salt) | –
80 to 95 °C | CN(CCC(Oc1ccc(C(=O)c2ccccc2)cc1)c1ccc(F)cc1)CC(=O)O (stereo not shown) (as salt: salt) | –
60 to 70 °C | COc1ccc(C(=O)c2ccc(OC(CCN(C)CC(=O)O)c3ccc(Cl)cc3)cc2)cc1 (stereo not shown) (as salt: salt) | –
65 to 71 °C | Cc1ccc(C(=O)c2ccc(OC(CCN(C)CC(=O)O)c3ccc(Cl)cc3)cc2)cc1 (stereo not shown) (as salt: salt) | –
85 to 95 °C | Cc1ccc(C(=O)c2ccc(OC(CCN(C)CC(=O)O)c3ccccc3)cc2)cc1 (stereo not shown) (as salt: salt) | –
101 to 112 °C | CN(CCC(Oc1ccc(C(=O)c2cc3ccccc3s2)cc1)c1ccc(Cl)cc1)CC(=O)O (stereo not shown) (as salt: salt) | –
182 to 192 °C | Cc1cnc(C(=O)c2ccc(OC(CCN(C)CC(=O)O)c3ccc(Cl)cc3)cc2)s1 (stereo not shown) (as salt: salt) | –
80 to 100 °C | CN(CCC(Oc1ccc(C(=O)c2nccs2)cc1)c1ccc(Cl)cc1)CC(=O)O (stereo not shown) | –
68 to 78 °C | CN(CCC(Oc1cccc(C(=O)c2ccncc2)c1)c1ccc(Cl)cc1)CC(=O)O (stereo not shown) | –
70 to 80 °C | CC(C)c1ccc(C(=O)c2ccc(OC(CCN(C)CC(=O)O)c3ccc(F)cc3)cc2)cc1 (stereo not shown) (as salt: salt) | –
